According to BindingDB's records for doi:10.1021/jm9904102 (Abbott Laboratories, 2000):

Assay: Inhibition of calcium ionophore (A-23187)-stimulated LTB4 formation in human neutrophil assay

SMILES | IC50 [nM]
O=C(O)/C=N/OC(c1ccc(OCc2nc3cccnc3s2)cc1)C1CCCCC1 (centres undefined) [{Cyclohexyl-[4-(thiazolo[5,4-b]pyridin-2-ylmethoxy)-phenyl]-methoxyimino}-acetic acid] | 27
C/C(=N\OC(c1ccc(OCc2cscn2)cc1)C1CCCCC1)C(=O)O (centres undefined) [2-{Cyclohexyl-[4-(thiazol-4-ylmethoxy)-phenyl]-methoxyimino}-propionic acid (0.25H2O)] | 360
C/C(=N\OC(c1ccc(OCc2nc3cc(F)ccc3s2)cc1Cl)C1CCCCC1)C(=O)O (centres undefined) [2-{[2-Chloro-4-(5-fluoro-benzothiazol-2-ylmethoxy)-phenyl]-cyclohexyl-methoxyimino}-propionic acid] | 48
C/C(=N\OC(c1ccc(OCc2ccc3cc(F)ccc3n2)cc1)C1CCCCC1)C(=O)O (centres undefined) [2-{Cyclohexyl-[4-(6-fluoro-quinolin-2-ylmethoxy)-phenyl]-methoxyimino}-propionic acid] | 20
O=C(O)/C(CCc1ccccc1)=N/OC(c1ccc(OCc2ccc3ccccc3n2)cc1)C1CCCCC1 (centres undefined) [2-{Cyclohexyl-[4-(quinolin-2-ylmethoxy)-phenyl]-methoxyimino}-4-phenyl-butyric acid (0.5H2O)] | 20
O=C(O)/C=N/OC(c1ccc(OCc2nc3ccccc3o2)cc1)C1CCCCC1 (centres undefined) [{[4-(Benzooxazol-2-ylmethoxy)-phenyl]-cyclohexyl-methoxyimino}-acetic acid (0.5H2O)] | 143
C/C(=N\OC(c1ccc(OCc2ccc3ccccc3n2)cc1)C1C2CC3CC(C2)CC1C3)C(=O)O (centres undefined) [2-{Adamantan-2-yl-[4-(quinolin-2-ylmethoxy)-phenyl]-methoxyimino}-propionic acid] | 20
C/C(=N\OC(c1cc2ccc(OCc3ccc4ccccc4n3)cc2s1)C1CCCCC1)C(=O)O (centres undefined) [2-{Cyclohexyl-[6-(quinolin-2-ylmethoxy)-benzo[b]thiophen-2-yl]-methoxyimino}-propionic acid] | 40
O=C(O)/C(=N/OC(c1ccc(OCc2ccc3ccccc3n2)cc1)C1CCCCC1)c1ccccc1 (centres undefined) [{Cyclohexyl-[4-(quinolin-2-ylmethoxy)-phenyl]-methoxyimino}-phenyl-acetic acid (0.5H2O)] | 31
C/C(=N\OC(c1cc(OCc2ccc3ccccc3n2)on1)C1CCCCC1)C(=O)O (centres undefined) [2-{Cyclohexyl-[5-(quinolin-2-ylmethoxy)-isoxazol-3-yl]-methoxyimino}-propionic acid] | 490
O=C(O)/C=N/OC(c1ccc(OCc2csc(-c3ccc(Cl)cc3)n2)cc1)C1CCCCC1 (centres undefined) [({4-[2-(4-Chloro-phenyl)-thiazol-4-ylmethoxy]-phenyl}-cyclohexyl-methoxyimino)-acetic acid] | 490
C/C(=N\OC(c1ccc(OCc2ccc3ccccc3n2)c(C)c1)C1CCCCC1)C(=O)O (centres undefined) [2-{Cyclohexyl-[3-methyl-4-(quinolin-2-ylmethoxy)-phenyl]-methoxyimino}-propionic acid (0.1H2O)] | 20
O=C(O)/C=N/OC(c1ccc(OCc2nc(-c3ccccc3)cs2)cc1)C1CCCCC1 (centres undefined) [{Cyclohexyl-[4-(4-phenyl-thiazol-2-ylmethoxy)-phenyl]-methoxyimino}-acetic acid (1.25H2O)] | 21
C/C(=N\OC(c1ccc(OCc2nc3ccccc3s2)cc1Cl)C1CCCCC1)C(=O)O (centres undefined) [2-{[4-(Benzothiazol-2-ylmethoxy)-2-chloro-phenyl]-cyclohexyl-methoxyimino}-propionic acid] | 28
C/C(=N\OC(c1cc2cc(OCc3ccc4ccccc4n3)ccc2s1)C1CCCCC1)C(=O)O (centres undefined) [2-{Cyclohexyl-[5-(quinolin-2-ylmethoxy)-benzo[b]thiophen-2-yl]-methoxyimino}-propionic acid] | 33
O=C(O)/C=N/OC(c1ccc(OCc2nc3ccccc3s2)cc1)C1CCCCC1 (centres undefined) [{[4-(Benzothiazol-2-ylmethoxy)-phenyl]-cyclohexyl-methoxyimino}-acetic acid] | 60
O=C(O)/C(=N\OC(c1ccc(OCc2ccc3ccccc3n2)cc1)C1CCCCC1)c1cccs1 (centres undefined) | 23
O=C(O)/C=N/OC(c1ccc(OCc2ccccn2)cc1)C1CCCCC1 (centres undefined) [{Cyclohexyl-[4-(pyridin-2-ylmethoxy)-phenyl]-methoxyimino}-acetic acid] | 150
O=C(O)/C=N/OC(c1ccc(OCc2cc(-c3ccccc3)on2)cc1)C1CCCCC1 (centres undefined) [{Cyclohexyl-[4-(5-phenyl-isoxazol-3-ylmethoxy)-phenyl]-methoxyimino}-acetic acid] | 140
CC(C)c1ccc(-c2csc(COc3ccc(C(O/N=C/C(=O)O)C4CCCCC4)cc3)n2)cc1 (centres undefined) [(Cyclohexyl-{4-[4-(4-isopropyl-phenyl)-thiazol-2-ylmethoxy]-phenyl}-methoxyimino)-acetic acid (2H2O)] | 35
O=C(O)/C=N/OC(c1ccc(CCc2ccc3ccccc3n2)cc1)C1CCCCC1 (centres undefined) [{Cyclohexyl-[4-(2-quinolin-2-yl-ethyl)-phenyl]-methoxyimino}-acetic acid (0.25H2O)] | 290
O=C(O)/C=N/OC(c1ccc(Oc2ccc3ccccc3n2)cc1)C1CCCCC1 (centres undefined) [{Cyclohexyl-[4-(quinolin-2-yloxy)-phenyl]-methoxyimino}-acetic acid (0.25H2O)] | 160
O=C(O)/C(Cc1ccc(O)cc1)=N/OC(c1ccc(OCc2ccc3ccccc3n2)cc1)C1CCCCC1 (centres undefined) [2-{Cyclohexyl-[4-(quinolin-2-ylmethoxy)-phenyl]-methoxyimino}-3-(4-hydroxy-phenyl)-propionic acid] | 43
O=C(O)/C=N/OC(c1ccc(OCc2nc3ccccc3s2)cc1Cl)C1CCCCC1 (centres undefined) [{[4-(Benzothiazol-2-ylmethoxy)-2-chloro-phenyl]-cyclohexyl-methoxyimino}-acetic acid] | 28
C/C(=N\OC(c1ccc(OCc2ccc3ccccc3n2)cc1Cl)C1CCCCC1)C(=O)O (centres undefined) [2-{[2-Chloro-4-(quinolin-2-ylmethoxy)-phenyl]-cyclohexyl-methoxyimino}-propionic acid] | 14
C/C(=N\OC(Cc1ccc(OCc2ccc3ccccc3n2)cc1)C1CCCCC1)C(=O)O (centres undefined) [2-{1-Cyclohexyl-2-[4-(quinolin-2-ylmethoxy)-phenyl]-ethoxyimino}-propionic acid] | 50
C/C(=N\OC(c1ccc(OCc2ccc3ccccc3n2)c(Cl)c1)C1CCCCC1)C(=O)O (centres undefined) [2-{[3-Chloro-4-(quinolin-2-ylmethoxy)-phenyl]-cyclohexyl-methoxyimino}-propionic acid] | 27

Second part, the compound after the results:

IC50 [nM] | SMILES
29 | C/C(=N\OC(CC1CCCCC1)c1ccc(OCc2ccc3ccccc3n2)cc1)C(=O)O (centres undefined) [2-{2-Cyclohexyl-1-[4-(quinolin-2-ylmethoxy)-phenyl]-ethoxyimino}-propionic acid]
120 | CC(C)(C)SC/C(=N\OC(c1ccc(OCc2ccc3ccccc3n2)cc1)C1CCCCC1)C(=O)O (centres undefined) [3-tert-Butylsulfanyl-2-{cyclohexyl-[4-(quinolin-2-ylmethoxy)-phenyl]-methoxyimino}-propionic acid]
59 | C/C(CCCC(=O)O)=N\OC(c1ccc(OCc2ccc3ccccc3n2)cc1)C1CCCCC1 (centres undefined) [5-{Cyclohexyl-[4-(quinolin-2-ylmethoxy)-phenyl]-methoxyimino}-hexanoic acid]
21 | O=C(O)/C=N/OC(c1ccc(OCc2ccc3ccccc3n2)cc1)C1C2CC3CC(C2)CC1C3 (centres undefined) [{Adamantan-2-yl-[4-(quinolin-2-ylmethoxy)-phenyl]-methoxyimino}-acetic acid]
10 | CCCCC(CCCC)C(O/N=C/C(=O)O)c1ccc(OCc2ccc3ccccc3n2)cc1 (centres undefined) [{2-Butyl-1-[4-(quinolin-2-ylmethoxy)-phenyl]-hexyloxyimino}-acetic acid]
40 | CC(/C=C/C(=O)O)=N\OC(c1ccc(OCc2ccc3ccccc3n2)cc1)C1CCCCC1 (centres undefined) [4-{Cyclohexyl-[4-(quinolin-2-ylmethoxy)-phenyl]-methoxyimino}-pent-2-enoic acid (0.25H2O)]
181 | O=C(O)/C(CSCCO)=N/OC(c1ccc(OCc2ccc3ccccc3n2)cc1)C1CCCCC1 (centres undefined) [2-{Cyclohexyl-[4-(quinolin-2-ylmethoxy)-phenyl]-methoxyimino}-3-(2-hydroxy-ethylsulfanyl)-propionic acid]
30 | C/C(=N\OC(Cc1ccccc1)c1ccc(OCc2ccc3ccccc3n2)cc1)C(=O)O (centres undefined) [2-{2-Phenyl-1-[4-(quinolin-2-ylmethoxy)-phenyl]-ethoxyimino}-propionic acid (0.25H2O)]
30 | CC/C(=N\OC(c1ccc(OCc2ccc3ccccc3n2)cc1)C1CCCCC1)C(=O)O (centres undefined) [2-{Cyclohexyl-[4-(quinolin-2-ylmethoxy)-phenyl]-methoxyimino}-butyric acid (H2O)]
17 | C/C(CCCCCC(=O)O)=N\OC(c1ccc(OCc2ccc3ccccc3n2)cc1)C1CCCCC1 (centres undefined) [7-{Cyclohexyl-[4-(quinolin-2-ylmethoxy)-phenyl]-methoxyimino}-octanoic acid (0.25H2O)]
47 | O=C(O)/C=N/OCC(c1ccc(OCc2ccc3ccccc3n2)cc1)C1CCCCC1 (centres undefined) [{2-Cyclohexyl-2-[4-(quinolin-2-ylmethoxy)-phenyl]-ethoxyimino}-acetic acid (0.25H2O)]
56 | O=C(O)/C=N/OC(c1ccc2cc(OCc3ccc4ccccc4n3)ccc2c1)C1CCCCC1 (centres undefined) [{Cyclohexyl-[6-(quinolin-2-ylmethoxy)-naphthalen-2-yl]-methoxyimino}-acetic acid]
16 | C/C(=N\OC(c1ccc(OCc2ccc3ccccc3n2)cc1)C1CCCC1)C(=O)O (centres undefined) [2-{Cyclopentyl-[4-(quinolin-2-ylmethoxy)-phenyl]-methoxyimino}-propionic acid]
60 | O=C(O)[C@@H](c1ccc(OCc2ccc3ccccc3n2)cc1)C1CCCC1 [(R)-Cyclopentyl-[4-(quinolin-2-ylmethoxy)-phenyl]-acetic acid]
14 | CCCCC(CCCC)C(O/N=C(\C)C(=O)O)c1ccc(OCc2ccc3ccccc3n2)cc1 (centres undefined) [2-{2-Butyl-1-[4-(quinolin-2-ylmethoxy)-phenyl]-hexyloxyimino}-propionic acid (2H2O)]
34 | C/C(=N\O[C@H](c1ccc(OCc2ccc3ccccc3n2)cc1)C1CCCCC1)C(=O)O
33 | C/C(=N\OC(c1ccc(OCc2ccc3ccccc3n2)cc1)c1cccs1)C(=O)O (centres undefined) [2-{[4-(Quinolin-2-ylmethoxy)-phenyl]-thiophen-2-yl-methoxyimino}-propionic acid]
